Test results from PMC3115046, “Analyzing Airway Inflammation with Chemical Biology: Dissection of Acidic Mammalian Chitinase Function with a Selective Drug-like Inhibitor” (Chemistry & Biology, 2011).
Read-outs that look alike come from different tables or passages of the source.

How the values were obtained:
[1] = biological target: human chitotriosidase (hCHIT1) (Homo sapiens, UniProt Q13231); test: Chitinase activity assay with fluorescent 4-MU substrate, hCHIT1; type: biochemical; conditions: read-out: IC50 against hCHIT1
human chitotriosidase (hCHIT1), sequence (Q13231 22-466): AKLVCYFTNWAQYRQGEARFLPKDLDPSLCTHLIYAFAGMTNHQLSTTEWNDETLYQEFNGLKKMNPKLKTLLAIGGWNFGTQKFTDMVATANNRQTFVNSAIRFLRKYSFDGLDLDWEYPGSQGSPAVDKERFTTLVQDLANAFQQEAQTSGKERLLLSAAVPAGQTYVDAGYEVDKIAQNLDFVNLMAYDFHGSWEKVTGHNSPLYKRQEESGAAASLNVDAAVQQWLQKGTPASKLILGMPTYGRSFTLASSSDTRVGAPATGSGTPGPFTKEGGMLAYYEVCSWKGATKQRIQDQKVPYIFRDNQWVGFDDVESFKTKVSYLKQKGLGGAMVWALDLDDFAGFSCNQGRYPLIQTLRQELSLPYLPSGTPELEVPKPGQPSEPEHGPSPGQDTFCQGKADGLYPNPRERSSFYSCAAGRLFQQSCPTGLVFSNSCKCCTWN

[2] = test system: lung chitinase activity; test: Chitinase activity in lung homogenates, OVA allergic inflammation model; type: in vivo, BALB/c mice
Description: Samples were incubated with substrate (0.022 mM in 100 mM citric acid, 200 mM sodium phosphate buffer [pH 5.2]) in a final volume of 50 μL. After a 10 min incubation at 37°C, the reaction was stopped with the addition of 500 μl sodium carbonate buffer (0.5 M sodium carbonate and 0.5 M sodium bicarbonate [pH 10.6]). Liberated 4-[…] was quantified using a microplate fluorometer (excitation 360 nm/emission 440 nm). Ki and IC50 values were determined in the presence of different concentrations of inhibitor. Experiments were performed in duplicate or triplicate. All experiments used female BALB/c mice, 6- to 8-weeks-old. Mice were kept in individually ventilated cages and all experiments were conducted under UK Home Office guidelines. Mice were sensitized (day 0) and boosted (day 14) i.p. with 20 μg OVA (Grade V, Sigma) adsorbed to 9% potassium alum. Mice were either challenged on day 28 and 30 with 50 μg OVA or PBS by the intratracheal route or were challenged with 1% OVA or PBS by aerosol for 30 min on day 28 to day 30. […] Necropsies were performed 24 hr after the final airway challenge. Protein from dissected lung was homogenized (TissueLyser, QIAGEN) in lysis buffer containing protease cocktail inhibitor (Sigma). Samples were incubated for 20 min on ice, prior to centrifugation 10,000 × g to removed cell debris. Protein amounts were quantified with Coomassie (Bradford) Reagent. […]

[3] = test system: inflammatory cell recruitment in bronchoalveolar lavage; test: Bronchoalveolar lavage cell counts, OVA allergic inflammation model; type: in vivo, BALB/c mice
Description: All experiments used female BALB/c mice, 6- to 8-weeks-old. Mice were kept in individually ventilated cages and all experiments were conducted under UK Home Office guidelines. Mice were sensitized (day 0) and boosted (day 14) i.p. with 20 μg OVA (Grade V, Sigma) adsorbed to 9% potassium alum. Mice were either challenged on day 28 and 30 with 50 μg OVA or PBS by the intratracheal route or were challenged with 1% OVA or PBS by aerosol for 30 min on day 28 to day 30. […] Necropsies were performed 24 hr after the final airway challenge. […] Total cell numbers were counted and cytospins prepared for differential cell counts, which were assessed by morphology following Diff Quick staining ([…]). BALF was centrifuged at 1200 × g and supernatant stored at -20°C for further analysis.

[4] = test system: ventilatory function (penH); test: Ventilatory function (penH) after methacholine, whole-body plethysmography; type: in vivo, BALB/c mice
Description: All experiments used female BALB/c mice, 6- to 8-weeks-old. Mice were kept in individually ventilated cages and all experiments were conducted under UK Home Office guidelines. Mice were sensitized (day 0) and boosted (day 14) i.p. with 20 μg OVA (Grade V, Sigma) adsorbed to 9% potassium alum. Mice were either challenged on day 28 and 30 with 50 μg OVA or PBS by the intratracheal route or were challenged with 1% OVA or PBS by aerosol for 30 min on day 28 to day 30. […] Necropsies were performed 24 hr after the final airway challenge. […] Briefly, conscious mice were placed in individual chambers for a 10 min acclimatization period. Spontaneous breathing patterns in mice relate to changes in chamber air pressure, which are measured by a transducer attached to the chamber wall. Differences in the rates of pressure change during peak inspiration and peak expiration and the timing of expiration are used to calculate penH according to the following equation; penH = ((expiratory time/relaxation time) – 1) × (peak expiratory flow (mL/s)/peak inspiratory flow (ml/s)). PenH measurements are not used as a quantitative measurement that relates to airway size and rather reflect changes to ventilation following bronchoconstriction. Baseline measurements of penH were made following an aerosol of PBS. […]

[5] = test system: OVA-specific tLN cell cultures; test: Cytokine and chemokine secretion from draining tLN cell cultures (Luminex); type: in vivo, BALB/c mice
Description: All experiments used female BALB/c mice, 6- to 8-weeks-old. Mice were kept in individually ventilated cages and all experiments were conducted under UK Home Office guidelines. Mice were sensitized (day 0) and boosted (day 14) i.p. with 20 μg OVA (Grade V, Sigma) adsorbed to 9% potassium alum. Mice were either challenged on day 28 and 30 with 50 μg OVA or PBS by the intratracheal route or were challenged with 1% OVA or PBS by aerosol for 30 min on day 28 to day 30. […] Necropsies were performed 24 hr after the final airway challenge.
The draining thoracic lymph nodes (tLN) were dissected and single-cell suspensions made before being plated out at 1 × 10^6 cells/mL in 96-well plates (RPMI 1640 supplemented with L-glutamine, penicillin streptomycin, and FCS). Cells were stimulated with 500 μg/mL OVA and incubated for 72 hr at 37°C, 5% CO2. MIP-1α levels were measured in cell-free supernatants using a Luminex kit (Invitrogen) and samples were read with a Luminex 100 multiplex bead array system.

[6] = 5 mg/kg i.p., OVA-challenged mice

Cn1cnc2c1c(=O)n(CCCn1c(=O)c3[nH]cnc3n(C)c1=O)c(=O)n2C [bisdionin F]
IC50 ([1]; listed as Bisdionin F): 17.1 ± 1 µM | IC50 [1]: 17 µM | chitinase activity in the lungs ([2]; 5 mg/kg i.p., control PBS and OVA-challenged mice, about 24 hr after last challenge): significantly reduced | lowest dose at which any chitinase inhibition was observed ([2]; i.p., allergic mice): 1 mg/kg | increase in neutrophil cell number in BALF vs vehicle-treated OVA-challenged mice ([3]; 5 mg/kg i.p.): 4 fold | number of eosinophils in BALF [3, 6]: reduction | number of lymphocytes in BALF [3, 6]: reduction | total cell airway infiltrates (BALF) ([3]; 5 mg/kg i.p., OVA-challenged mice, vs vehicle, p < 0.01): significantly reduced | total cell numbers (BALF) in PBS-challenged animals ([3]; 5 mg/kg i.p., PBS-challenged mice): not altered | eosinophilia of OVA-challenged mice ([3]; 1 and 5 mg/kg i.p.): reduced | increase in neutrophil cell number in BALF ([3]; 1 and 5 mg/kg i.p., OVA-challenged mice): 2- to 4 fold | reduction of eosinophil recruitment ([3]; doses that decreased penH in allergic animals): approximately 50% | penH in PBS-challenged animals ([4]; 5 mg/kg, data not shown): no effect | penH in allergic mice ([4]; 1 and 5 mg/kg i.p., highest concentration of methacholine): significantly reduced | MIP-1α secretion from tLN cell cultures ([5]; 5 mg/kg i.p., OVA-challenged animals, 72 hr culture): enhanced | IL-17 secretion in tLN cultures ([5]; allergic mice, data not shown): not significantly altered | KC secretion in tLN cultures ([5]; allergic mice, data not shown): not significantly altered
